Assay [1] concerns C-X-C chemokine receptor type 4 (Homo sapiens), P61073 [D171N]. Put plainly: (§1) Displacement of [125I]12G5 antibody from transmembrane domain 4 of human CXCR4 D171N mutant expressed in COS7 cells. In kind it is cell-based. The settings on record: COS-7. On the technique in general: In a radioligand displacement assay an active substance lowers the binding of a labelled ligand.
The target of assay [2] is C-X-C chemokine receptor type 4 (Homo sapiens, UniProt P61073, D171N). Described as §1. Format: cell-based, COS-7.
C-X-C chemokine receptor type 4 (Homo sapiens, UniProt P61073, D171N), sequence (P61073 whole entry D171N): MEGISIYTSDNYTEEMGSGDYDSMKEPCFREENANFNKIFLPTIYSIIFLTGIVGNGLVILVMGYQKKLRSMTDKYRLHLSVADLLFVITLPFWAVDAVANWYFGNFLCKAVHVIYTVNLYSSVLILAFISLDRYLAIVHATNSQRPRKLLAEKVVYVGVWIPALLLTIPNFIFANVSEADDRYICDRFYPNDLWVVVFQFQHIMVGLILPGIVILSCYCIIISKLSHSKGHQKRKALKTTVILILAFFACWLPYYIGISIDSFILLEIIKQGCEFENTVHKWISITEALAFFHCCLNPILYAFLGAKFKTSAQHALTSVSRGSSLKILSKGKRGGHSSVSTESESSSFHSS
For assay [3], the system named is C-X-C chemokine receptor type 4 (Homo sapiens), P61073 [D182A]. Put plainly: (§2) Displacement of [125I]12G5 antibody from extracellular loop 2 of human CXCR4 D182A mutant expressed in COS7 cells. Format: cell-based. The conditions noted are these: COS-7.
C-X-C chemokine receptor type 4 (Homo sapiens), P61073 [D182A], sequence (P61073 whole entry D182A): as the sequence (P61073 whole entry D171N) above, with N171D, D182A counted along it
Assay [4] addresses C-X-C chemokine receptor type 4 (Homo sapiens, UniProt P61073, D182A). The assay is described as §2. Format: cell-based, COS-7.
In assay [5] the test system is C-X-C chemokine receptor type 4 (Homo sapiens), P61073 [Q200W]. Put plainly: (§3) Displacement of [125I]12G5 antibody from transmembrane domain 5 of human CXCR4 Q200W mutant expressed in COS7 cells. In kind it is cell-based. The settings on record: COS-7.
C-X-C chemokine receptor type 4 (Homo sapiens), P61073 [Q200W], sequence (P61073 whole entry Q200W, the tested form may be a part): as the sequence (P61073 whole entry D171N) above, with N171D, Q200W counted along it
The target in assay [6] is T1, C-X-C chemokine receptor type 4 (Homo sapiens, UniProt P61073, Q200W). The assay is described as §3. In kind it is cell-based, COS-7.
T1 sequence (P61073 whole entry Q200W, the tested form may be a part): as the sequence (P61073 whole entry D171N) above, with N171D, Q200W counted along it
The test system of assay [7] is C-X-C chemokine receptor type 4 (Homo sapiens), P61073 [G207F]. Kind of assay: (§4) Displacement of [125I]12G5 antibody from transmembrane domain 5 of human CXCR4 G207F mutant expressed in COS7 cells. Format: cell-based. The conditions noted are these: COS-7.
C-X-C chemokine receptor type 4 (Homo sapiens), P61073 [G207F], sequence (P61073 whole entry G207F, the tested form may be a part): as the sequence (P61073 whole entry D171N) above, with N171D, G207F counted along it
For assay [8], the target named is C-X-C chemokine receptor type 4 (Homo sapiens, UniProt P61073, G207F). The assay is described as §4. In kind it is cell-based, COS-7.
C-X-C chemokine receptor type 4 (Homo sapiens, UniProt P61073, G207F), sequence (P61073 whole entry G207F, the tested form may be a part): as the sequence (P61073 whole entry D171N) above, with N171D, G207F counted along it
Assay [9] deals with C-X-C chemokine receptor type 4 (Homo sapiens), P61073 [D262N]. Put plainly: (§5) Displacement of [125I]12G5 antibody from transmembrane domain 6 of human CXCR4 D262N mutant expressed in COS7 cells. In kind it is cell-based. The conditions noted are these: COS-7.
C-X-C chemokine receptor type 4 (Homo sapiens), P61073 [D262N], sequence (P61073 whole entry D262N, the tested form may be a part): as the sequence (P61073 whole entry D171N) above, with N171D, D262N counted along it
Assay [10] concerns the target C-X-C chemokine receptor type 4 (Homo sapiens, UniProt P61073, D262N). Described as §5. Format: cell-based, COS-7.
For assay [11], the system named is C-X-C chemokine receptor type 4 (Homo sapiens), P61073 [E288A]. Kind of assay: (§6) Displacement of [125I]12G5 antibody from transmembrane domain 7 of human CXCR4 E288A mutant expressed in COS7 cells. Format: cell-based. The conditions noted are these: COS-7.
C-X-C chemokine receptor type 4 (Homo sapiens), P61073 [E288A], sequence (P61073 whole entry E288A, the tested form may be a part): as the sequence (P61073 whole entry D171N) above, with N171D, E288A counted along it
Assay [12] addresses T2, C-X-C chemokine receptor type 4 (Homo sapiens, UniProt P61073, E288A). The assay is described as §6. In kind it is cell-based, COS-7.
In assay [13] the test system is C-X-C chemokine receptor type 4 (Homo sapiens), P61073 [Q200W]. Put plainly: (§7) Antagonist activity at human CXCR4 Q200W mutant expressed in COS7 cells coexpressing G protein Gqi4myr assessed as inhibition of CXCL12-induced phosphatidylinositol turnover. In kind it is functional, cell-based. The conditions noted are these: COS-7.
Assay [14] concerns the target T1, C-X-C chemokine receptor type 4. The description is as §7. In kind it is functional, cell-based, COS-7.
Assay [15] deals with C-X-C chemokine receptor type 4 (Homo sapiens), P61073 [E288A]. Put plainly: (§8) Antagonist activity at human CXCR4 E288A mutant expressed in COS7 cells coexpressing G protein Gqi4myr assessed as inhibition of CXCL12-induced phosphatidylinositol turnover. The conditions noted are these: COS-7. In kind it is functional, cell-based.
In assay [16] the target is T2, C-X-C chemokine receptor type 4. Described as §8. In kind it is functional, cell-based, COS-7.
In assay [17] the test system is Human immunodeficiency virus 1. Put plainly: Antiviral activity against HIV1 clinical isolate 10 infected in U87.CD4 cells expressing human wild type CXCR4. Format: functional, organism-based. The conditions noted are these: Human immunodeficiency virus 1, U87.CD4.
For assay [18], the system named is Human immunodeficiency virus 1. Kind of assay: Antiviral activity against HIV1 clinical isolate 10 infected in U87.CD4 cells expressing human CXCR4 D171N mutant. In kind it is functional, organism-based. The conditions noted are these: Human immunodeficiency virus 1, U87.CD4.

T2 sequence (P61073 whole entry E288A): as the sequence (P61073 whole entry D171N) above, with N171D, E288A counted along it
C-X-C chemokine receptor type 4 (Homo sapiens), P61073 [D171N], sequence (P61073 whole entry D171N, the tested form may be a part): as the sequence (P61073 whole entry D171N) above
C-X-C chemokine receptor type 4 (Homo sapiens, UniProt P61073, D262N), sequence (P61073 whole entry D262N, the tested form may be a part): as the sequence (P61073 whole entry D171N) above, with N171D, D262N counted along it
C-X-C chemokine receptor type 4 (Homo sapiens, UniProt P61073, D182A), sequence (P61073 whole entry D182A, the tested form may be a part): as the sequence (P61073 whole entry D171N) above, with N171D, D182A counted along it

As to `c1ccc(CNCc2ccc(CN3CCCNCCNCCCNCC3)cc2)nc1`, the logKi in assay [1] is -5.49; in assay [3], -7.44; in [5], -5.94; in [7], -6.81; in assay [9], -3.22; in assay [11] it was -4.94. Also, the Ki was 3.2 µM in [2]; 40 nM in assay [4]; 1200 nM in [6]; 160 nM in [8]; 600 µM in assay [10]; 11 µM in assay [12]. Also, the Ki in assay [14] is 220 nM; in assay [16] it was 1900 nM. The logIC50 in [13] is -6.65; in assay [15] it was -5.17. The figures for the 50% inhibitory concentration (IC50) in [17] and in assay [18] were 4.7 µM and 183 µM, respectively.

The Ki is a dissociation constant, usually derived from enzyme kinetics or from competition with a known ligand. One may read the IC50 as the concentration that inhibits the measured activity by half. High values mean weaker potency, low ones greater potency.
